Reference: US20250144069A1, “BILOBALIDE DERIVATIVE COMPOUNDS FOR TREATING NEUROLOGICAL DISEASES AND CANCERS” (The Chinese University of Hong Kong, priority 2023, published 2025)

Key:
NCI-60 cell line panel = assay: NCI-60 Human Tumor Cell Lines Screen, one-dose screen (SRB); format: cell-based; conditions: 48 hours
Source text: In this example, the cytotoxic effect of DW192 was assess via the NCI-60 Human Tumor Cell Lines Screen, provided by the Developmental Therapeutics Program (DTP) of the National Cancer Institute (NCI) in the United States. This screening helps to identify and characterize the cytotoxic effect of compounds on 60 different human cancer cell lines, including leukemia, melanoma, and cancers of the lung, colon, brain, ovary, breast, prostate and kidneys. The screening comprised of two assays: one-dose screen and five-dose screen. In one-dose screen, 10 μM of DW192 was tested for 48 hours. In five-dose screen, four, 10-fold of ½ log serial dilutions were tested for 48 hours.
Method (Extracted from the NCI-60 Website)
Cells were seeded into 96-well plates in 100 uL at plating densities ranging from 5,000 to 40,000 cells/well depending on the doubling time of individual cell lines. Plates were incubated at 37° C.+5% CO2+95% air+100% relative humidity for 24 hours before adding compounds. Two plates of each cell line were fixed in situ with TCA, to represent a measurement of the cell population for each cell line at the time of drug addition (Tz). 100 uL of compounds in four, 10-fold of ½ log serial dilutions were added to the wells already containing 100 uL of medium. Plates were incubated at 37° C.+5% CO2+95% air+100% relative humidity for an additional 48 hours.
To terminate the assay, adherent cells were fixed in situ by the gentle addition of 50 uL of cold 50% (w/v) TCA (final concentration, 10% TCA) and incubated for 60 min at 4° C. For suspension cells, 50 uL of 80% TCA (final concentration, 16% TCA) was used.
Supernatant was discarded, and the plates were wash five times with tap water and air dried. […]
Remaining stained cells were solubilized with 10 mM trizma base. Absorbance at 515 nm was measured.
Percentage growth was calculated using the following equations:
[formula] [formula] • where Tz=absorbance at time zero, C=absorbance of control growth, Ti=absorbance of test growth in the presence of drug at the five concentration levels.

A549 cells [1] = assay: Single-dose CCK-8 cell viability screening (adherent cells); format: cell-based, human; conditions: A549 cells, 50 uM, 48 h, CCK-8
[2] = as above; format: cell-based, human; conditions: Homo sapiens, A549, 48 h, average of A549 and Jurkat % viability, 50 uM, 48 h
MCF-7 cells = assay: Dose-dependent CCK8 viability assay; format: cell-based; conditions: Homo sapiens, MCF7, 48 hours
Description: (§1) In this example, dose-dependent CCK8 Viability assay was performed to determine the IC50 (the concentration of compound to achieve 50% viability) of several of the hit compounds identified from Example 2. A variety of cell lines were used: • Jurkat cells: Human leukemia • A549 cells: Human NSCLC • KP-1 cells: Mouse NSCLC with KRAS and P53 mutations • MCF-7 cells: Human breast cancer
(§2) Method for Adherent Cells (A549, MCF-7 and KP-1 Cells)
(§3) 5000 cells/100 uL were seeded in 96-well plates and incubate at 37° C.+5% CO2 overnight. Media were replaced with 100 uL of compound per well in 6 replicates in a series of 2-fold dilutions. The following controls were prepared.
(§4) Blank control: 100 uL 0.1% DMSO in media with no cells per well.
(§5) Positive control: 100 uL of 10 uM 5-flurouracil per well.
(§6) Negative control: 100 uL of 0.1% DMSO in media per well.
(§7) Each 96-well plate included 1 compound in 7 concentrations and a complete set of controls (in 6 replicates).
(§8) Cells were incubated at 37° C.+5% CO2 for 46 hours. 10 uL of CCK8 solution was added to each well. Cells were incubated at 37° C.+5% CO2 for 2 hours. Absorbance at 450 nm was measured using a multiplate reader.
(§9) Viability was calculated using the equation: […]

KP-1 cells = assay: Dose-dependent CCK8 viability assay; format: cell-based; conditions: Mus musculus, 48 hours
Description: as §1, §2, §3, §4, §5, §6, §7, §8, §9

B16 melanoma cells = assay: B16 melanoma allograft in C57BL/6 mice; format: in vivo; conditions: 40 mg/kg daily subcutaneous injections, 21 days
Description: In the example, C57BL/6 mice were subcutaneously injected with B16 melanoma cells. Tumor cells were allowed to develop for one week, after that mice were treated with daily subcutaneous injections of vehicle or DW192 (40 mg/kg) for 21 days. FIG. 12A is a plot showing the tumor growth curves.

A549 cells [3] = assay: Dose-dependent CCK8 viability assay; format: cell-based, human
Description: as §1, §2, §3, §4, §5, §6, §7, §8, §9

Jurkat cells [4] = assay: Dose-dependent CCK8 viability assay; format: cell-based; conditions: Homo sapiens, 48 hours
Description: as §1
Method for Suspension Cells (Jurkat Cells)
5000 cells/90 uL were seeded in 96-well plates. 10 uL of compound (10×) in various concentrations was added to each well in 6 replicates. The following controls were prepared.
Blank control: 10 uL 1% DMSO in media with no cells per well.
Positive control: 10 uL of 100 uM 5-flurouracil (10×) per well.
Negative control: 10 uL of 1% DMSO in media (10×) per well.
Note: Each 96-well plate can test 1 compound in 7 concentrations with a complete set of controls (in 6 replicates)
as §8
Viability was calculated using this equation: […]

Jurkat cells [5] = assay: Single-dose CCK-8 cell viability screening (suspension cells); format: cell-based, human; conditions: Jurkat cells, 50 uM
[6] = tested on: HMC3 microglial cell line; assay: RSL3-induced ferroptosis model, cell viability (CCK-8); format: cell-based
[7] = cell free
HMC3 cells [8] = assay: Lipid peroxidation level by flow cytometry using C11-BODIPY; format: cell-based
Description: For flow cytometry, HMC3 cells (seeded 50,000 cells per well on 24-well plate one day prior to the experiment) were pretreated with 50 nM RSL3 for 2 h. […] After which medium was replaced with BODIPY™ 581/591C11 (10 μM, Invitrogen) or CellROX™ Green (5 μM, Invitrogen) for 30 min staining. Cells were then washed 3 times with PBS and collected. Fluorescence was measured by BD FACSympgony A5.2 SORP Flow Cell Analyzer (BD Biosciences).
Disequilibrium ROS level acts as a direct initiator of lipid peroxidation, which is one of the major hallmarks of ferroptosis. In this example, HMC3 cells according to the conditions in Table 4 were subjected to measurement of lipid peroxidation level using flow cytometry and the lipid peroxidation sensor C11-BODIPY.
For flow cytometry, HMC3 cells (seeded 50,000 cells per well on 24-well plate one day prior to the experiment) were pretreated with 50 nM RSL3 for 2 h. After RSL3 treatment, medium was replaced by DMSO (0.1%) only, SXQ087-1 (10, 5 and 2.5 μM), following by 3 h treatment. After which medium was replaced with BODIPY™ 581/591C11 (10 μM, Invitrogen) for 30 min staining. Cells were then washed 3 times with PBS and collected. Fluorescence was measured by BD FACSympgony A5.2 SORP Flow Cell Analyzer (BD Biosciences).
Lipid peroxidation is one of the major hallmarks of ferroptosis. In this example, HMC3 cells according to the conditions in Table 5 were subjected to measurement of lipid peroxidation level using flow cytometry and the lipid peroxidation sensor C11-BODIPY.

GPX4 = GPX4 protein level by Western-blot; format: cell-based; conditions: HMC3, co-treated with RSL3 1 μM and compound 10, 5, 2.5 μM, 3 h
Source text: As mentioned above, RSL3 treatment results in an oxidized environment in cells, which promotes the CMA to scavenge damaged proteins including GPX4 or glyceraldehyde-3-phosphate dehydrogenase (GAPDH), a well-known CMA substrate. To gain insights into the mechanism of action of bilobalide analogue XBB-037 against the RSL3-induced ferroptosis, HMC3 cells were pre-treated with RSL3, followed by treatment with or without bilobalide analogue XBB-037.
In FIN56 assay, HMC3 (300,000 cells per well on 6-well plate) was pre-treated with FIN56 (2.5, 1.25, 0.625 μM) for 2 h, followed by 8 h treatment of DMSO only (0.1%) or XBB-037 (50 μM). In RSL3 assay, HMC3 (300,000 cells per well on 6-well plate) was pre-treated with RSL3 (750, 500, 250 nM) for 2 h, followed by 4 h or 8 h treatment of DMSO only (0.1%) or XBB-037 (50 μM). […] Antibodies for GPX4 (52455, CST) was used at 1:500 dilution, β-Actin (AC026, ABclonal) was used at 1:400,000 dilution, GAPDH (AC035, ABclonal) was used at 1:3000 dilution. […] Band intensity was normalized by image lab software.
Now referring to FIGS. 7E-7F, GPX4 levels in HMC3 cells pre-treated with RSL3 are shown. Protein levels of GPX4 and […] at 0, 250, 500 or 750 nM RSL3 were measured by Western-blot. HMC3 cells were pretreated with RSL3 for 2 hours and then treated with or without 50 μM bilobalide analogue XBB-037 for 4 hours.
In addition to […], FIN56 was further used to investigate the GPX4 regulation of bilobalide analogue XBB-037. As mentioned above, FIN56 is a Class III ferroptosis inducer, which causes the depletion of cellular GPX4 levels without affecting GPX4 activity. In this experiment, HMC3 cells were pretreated with FIN56 for 2 hours and then treated with or without 50 μM XBB-037 for 8 hours. Protein levels were measured by Western-blotting using indicated antibodies. Data were plotted as mean±s.d., n=3 technical replicates. **p<0.01. Statistical analyses were performed by two-way ANOVA with multiple comparisons using Two-stage linear step-up procedure of Benjamini, Krieger and Yekutieli multiple comparisons test. […]

[9] = tested on: BV-2 murine microglial cell line; assay: RSL3-induced ferroptosis model, cell viability (CCK-8)
Description: In this example, the anti-ferroptotic properties of the BB analogues described in preceding examples were evaluated by a RSL3-induced ferroptosis model. […] To evaluate the anti-ferroptosis activity of BB analogues, we developed a phenotypic screening based on RSL3-induced ferroptosis model on HT22 mouse hippocampal cell line, HMC3 microglial cell line and BV-2 murine microglial cell line which were co-treated or pre-treated with RSL3 and BB analogues for 2-24 h, and the cell viability was subsequently measured. […]
For phenotypic screening of bilobalide (BB) analogues, 5,000 cells per well (100 uL volume) of HT22, HMC3 or BV-2 cells were placed in 96-well plate and allowed to adhere for 22 h. […] Cell viability was measured using cell counting kit-8 (CCK-8) (MCE). […] Cell viability was measured after 22 h treatment by CCK-8. […] Cell viability was measured by CCK-8 using CLARIOstar monochromator multimode plate reader under 450 nm wavelength.
In this example, the cells were pre-treated with RSL3 (200 nM for HT22 and HMC3, 500 nM for BV-2) for two hours, followed by bilobalide analogues treatment (50 PM) for 22 hours. Cell viability was measured using cell counting kit-8 (CCK-8); n=5 technical replicates. […]

HMC3 cells [10] = assay: Cytotoxicity, cell viability of HMC3 cells; format: cell-based; conditions: 24 h treatment
Source text: Now referring to FIG. 11A, a chart showing the cell viability (%) of HMC3 cells treated with SXQ087-1, XBB-037 or bilobalide.

[11] = tested on: HT22 mouse hippocampal cell line; assay: RSL3-induced ferroptosis model, cell viability (CCK-8)
Description: In this example, the anti-ferroptotic properties of the BB analogues described in preceding examples were evaluated by a RSL3-induced ferroptosis model. […] To evaluate the anti-ferroptosis activity of BB analogues, we developed a phenotypic screening based on RSL3-induced ferroptosis model on HT22 mouse hippocampal cell line, HMC3 microglial cell line and BV-2 murine microglial cell line which were co-treated or pre-treated with RSL3 and BB analogues for 2-24 h, and the cell viability was subsequently measured.
HMC3 cell line was maintained in Minimum Essential Medium (MEM, Gibco) supplemented with 1× non-essential amino acid (Gibco), 1 mM sodium pyruvate (Gibco), 10% fetal bovine serum (FBS) (Gibco) and 1% penicillin/streptomycin (Gibco). BV-2 cell line was maintained in Roswell Park Memorial Institute (RPMI) 1640 medium (Gibco) supplemented with 10% FBS and 1% penicillin/streptomycin, and HT22 cell line was maintained in Dulbecco's Modified Eagle's Medium (DMEM) (Gibco) supplemented with 10% FBS and 1% penicillin/streptomycin. All cells were incubated at 37° C. in a humidified atmosphere under 5% CO2.
For phenotypic screening of bilobalide (BB) analogues, 5,000 cells per well (100 uL volume) of HT22, HMC3 or BV-2 cells were placed in 96-well plate and allowed to adhere for 22 h. After which, cells were pre-treated with 200 nM (on HT22, HMC3) or 500 nM (on BV-2) of RSL3 (Bidepharm) for 2 h respectively. Medium was then replaced by 50 μM BB analogues and followed by 22 h incubation subsequently. Cell viability was measured using cell counting kit-8 (CCK-8) (MCE). For dose-response of BB analogues, RSL3, HT22 and HMC3 cells (seeded on 96-well plates at 5,000 cells per well) were treated with multiple doses of RSL3 for 2 h. […] Cell viability was measured after 22 h treatment by CCK-8. […] Cell viability was measured by CCK-8 using CLARIOstar monochromator multimode plate reader under 450 nm wavelength.
In this example, the cells were pre-treated with RSL3 (200 nM for HT22 and HMC3, 500 nM for BV-2) for two hours, followed by bilobalide analogues treatment (50 PM) for 22 hours. Cell viability was measured using cell counting kit-8 (CCK-8); n=5 technical replicates. […] Such effect was further investigated by treating the cell lines with various doses of RSL3.

LC3-II/LC3-I = conditions: HMC3, co-treated with RSL3 1 μM and compound 10, 5, 2.5 μM, 3 h
Description: After incubation, cells were washed 3 times with ice-cold PBS and lysed in RIPA buffer containing 1× protease inhibitor cocktail (MCE) and nuclease (Biyotime) on ice for 30 min. All samples were centrifuged and then quantified by bicinchoninic acid (BCA) assay (Pierce). Cell lysates were diluted with Laemmli Sample Buffer (Bio-Rad) and heated at 95° C. for 5 min. Samples were separated by 12% SDS-PAGE and transferred to a polyvinylidene difluoride membrane. Membrane was incubated with 3% bovine serum albumin (BSA, Sigma-Aldrich) for 1 h, and subsequently incubated with indicated primary antibody overnight at 4° C. After incubation, membrane was washed by wash buffer (containing 20 mM Tris, 150 mM NaCl and 0.1% Tween 20), and incubated with peroxidase-conjugated secondary antibody at room temperature for 1 h. Antibodies for GPX4 (52455, Cell Signaling Technology) was used at 1:500 dilution, GAPDH (sc-32233, Santacruz) was used at 1:3000 dilution, LC3B (A19665, ABclonal) was used at 1:1000 dilution. Goat anti-rabbit IgG HRP-linked antibody (7074, CST) was used at 1:2500 dilution, goat anti-mouse IgG (H+L) secondary antibody DyLight™ 488 (35502, Invitrogen) was used at 1:5000 dilution. Blot was washed and visualized using Clarity Western ECL Substrate (Bio-Rad) with ChemiDoc MP Imaging System (Bio-Rad). Band intensity was normalized by image J software.

HMC3 cells [12] = format: cell-based

With `CC(C)(C)[C@]1(O)C[C@@H]2OC(=O)C[C@@]23C(=O)O[C@@H]2N(CC4C5CC6CC(C5)CC4C6)C(=O)[C@H](OC(=O)c4ccccc4)[C@]213` (stereo partly drawn) [DW192, (3aS,5aS,8R,8aS,9R,10aS)-6-(((1S,5R,7S)-adamantan-2-yl)methyl)-9-(tert-butyl)-9-hydroxy-2,4,7-trioxooctahydro-4H,9H-furo [3″,2″:2′,3′]cyclopenta[1′,2′:3,4]furo[2,3-b]pyrrol-8-yl benzoate] the “cytotoxic effect across the NCI-60 cell line panel” value (NCI-60 cell line panel; 10 μM) was “exhibits cytotoxic effects towards multiple cell lines of different cancer type”, the lethality (NCI-60 cell line panel; COL0205 (colon cancer), 10 μM) was 66.18% and the inhibition at 10 µM (NCI-60 cell line panel; Homo sapiens, HOP-62, HOP62 (NSCLC), read-out: growth inhibition) was 50.2%. The “% Viability (50 uM, 48 h) A549” value (A549 cells [1]) was 53.19%, the viability at 50 µM (A549 cells [1]; Homo sapiens, A549, 48 h, read-out: % Viability (50 uM, 48 h) A549) was 53% and the viability at 50 µM [2] was 48.2%. The IC50 (MCF-7 cells) was 19.6 µM, the IC50 (KP-1 cells) was 15.8 µM and the “tumor growth and size” value (B16 melanoma cells) was “significantly reduced the growth and size of melanoma tumors”. The IC50 (A549 cells [3]; 48 hours) was 16.4 µM, the IC50 (A549 cells [3]; Homo sapiens, A549, 48 h) was 21.9 µM and the IC50 (Jurkat cells [4]) was 21.9 µM. The viability at 50 µM (Jurkat cells [5]; Homo sapiens, Jurkat, 48 h, CCK-8, read-out: % Viability (50 uM, 48 h) Jurkat) was 43% and the “% Viability (50 uM, 48 h) Jurkat” value (Jurkat cells [5]; CCK-8, 50 µM) was 43.26%.

In the case of `CC(C)(C)[C@]1(O)C[C@@H]2OC(=O)C[C@@]23C(=O)O[C@@H]2N(CCc4ccc(O)c(O)c4)C(=O)[C@H](OC(=O)c4ccccc4)[C@]213` [SXQ087-1], the “inhibition of RSL3-induced ferroptosis (phenotypic screening, cell viability)” value (from here on “inhibition of RSL3-induced ferroptosis”) [6] is reported as “effectively inhibit ferroptosis”, the “radical scavenging activity (relative radical level)” value [7] is reported as “significant dose-dependent radical scavenging activity” and the “lipid peroxidation level (C11-BODIPY)” value (HMC3 cells [8]) is reported as “significant down-regulation of RSL3-induced lipid peroxidation accumulation in a dose-dependent manner”. The “GPX4 level after RSL3” value (GPX4) was “RSL3-induced GPX4 degradation was reduced”, the “inhibition of RSL3-induced ferroptosis” value [9] was “effectively inhibit ferroptosis” and the “cytotoxicity (cell viability)” value (HMC3 cells [10]) was “no significant cytotoxicity”. For the same molecule, the “inhibition of RSL3-induced ferroptosis” value [11] was “effectively inhibit ferroptosis”, the “LC3-II/LC3-I ratio after RSL3” value (LC3-II/LC3-I) was “increasing LC3-II/LC3-I ratio was also reduced” and the “protection against FIN56-induced cell death (cell viability)” value (HMC3 cells [12]) was “effectively suppressed FIN56-induced cell death”. The “protection against ML162 lethality (cell viability)” value (HMC3 cells [12]) was “alleviated the lethality of ML162”, the “protection against ML210 lethality (cell viability)” value (HMC3 cells [12]) was “alleviated the lethality of ML210” and the “protection against erastin-induced lethality (cell viability)” value (HMC3 cells [12]) was “suppressed erastin-induced lethality”.
